Laboratory results published in patent publication US8791099B2, “Transition metal complexes of corroles for preventing cardiovascular diseases or disorders” (Technion Research and Development Foundation Ltd., priority 2007, dated 2014).
Marks after values point to notes of the source that are not given here.

Experiments:
[1] = Oxidation of DMSO to formaldehyde by peroxynitrite; details: pH 7.4, T=25°C, yield relative to [PN]0; PN alone 11.5%
Experimental: The final pH of the solutions was 7.4 and the temperature was maintained at 24° C. After 5 min of stirring, a 0.3 ml NaOH solution (7.8 M) was added to each tube for analyzing the amount of formed formaldehyde. This was immediately followed by supplying the tubes with 0.3 mL of 34.2 mM Purpald® (a color forming reagent for the determination of aldehydes; Aldrich Chemical Co.) in 480 mM HCl; and a second incubation with continuous shaking was performed for 10 min at 24° C. The thus obtained reaction product between formaldehyde and Purpald® was oxidized to a colored compound by the addition of 0.3 mL 470 mM KIO4 in 470 mM NaOH. The absorbance at 550 nm was measured with a spectrophotometer and the amount of formaldehyde was determined by using a standard curve obtained from formaldehyde solutions of known concentrations (a linear curve was obtained by drawing final O.D. at 550 nm versus initial formaldehyde concentrations).
(§1) These particular molecules were specifically chosen because they represent targets of hydroxyl radical, nitrogen dioxide, and of oxygen transfer reagents. In addition, their reaction products are easily identified and quantified by established methods.

[2] = Oxidation of deoxyribose to malonyldialdehyde by peroxynitrite; details: pH 7.4, T=25°C, yield relative to [PN]0; PN alone 1.7%
Experimental: 1 mL of 2.8% trichloroacetic acid and 1 mL of 1% thiobarbituric acid in 0.1 M NaOH adjusted to pH 3.5 were sequentially added to 1 mL samples and the absorbance spectra at 532 nm due to the absorbance maximum of the MDA-thiobarbiturate product were recorded as a function of time (0-22 hr) at 24° C.
as §1

[3] = Nitration of fluorescein by peroxynitrite; details: pH 7.4, T=25°C, relative to [fluorescein]0; PN alone 30%
Experimental: The changes in fluorescein absorbance were measured on the UV/vis spectrophotometer. The yield of nitration was determined by converting absorbance to changes in concentration of fluorescein and nitrated fluorescein, using pre-determined extinction coefficients. For increased accuracy, the three wavelengths in which the largest changes in absorbance occur were used. The yields were calculated based on the initial substrate concentration.
as §1

[4] = Nitration of L-tyrosine by peroxynitrite; details: pH 7.4, T=25°C, yield relative to [PN]0; PN alone 11%
Experimental: e) Nitration of L-tyrosine: Peroxynitrite (0.44 μmol) was reacted with 0.16 μmol of L-tyrosine in 2 mL phosphate buffer solution, pH 7.4 at T=24° C. for 5 min. The concentration of such formed nitrotyrosine was estimated by recording the 438 nm absorbance (ε=4200 M^−1cm^−1) of basified solutions (via the addition of 0.2 ml of 7.8 M NaOH).
as §1

[5] = Oxidation of DMSO by copper sulfate/ascorbate; details: CuSO4/ascorbate as initiator; 50 μM corrole, 18 hr
Experimental: Reaction was initiated by adding a mixture of CuSO4 and phenanthroline (final concentration of 8 μM for each), followed by sodium ascorbate (500 μM). […]
Additional experiments were carried out by using CuSO4/ascorbate as the initiator of reactive oxygen species (by the complex Fenton-type oxidation that produces hydroxyl radical via the involvement of superoxide anion radical and hydrogen peroxide), as to bridge between the results of the small molecules and those obtained by oxidation of LDL.

LDL = experiment: Interaction of LDL with corroles (absorbance before/after dialysis); type: binding, human; details: 10 μM corrole, 100 mg LDL protein/L (0.2 μM), dialyzed against PBS
Experimental: The solutions where extensively dialyzed against PBS, and the electronic spectrum was measured again. The difference in the absorbance can be used to calculate the number of corrole molecules bound to LDL [HDL].
Possible interactions between the corroles and LDL were investigated prior to the examinations of the effect of the corroles on LDL oxidation. This was performed by recording the absorbance spectrum of 10 μM aqueous corrole solutions before and after addition of 100 mg of LDL protein/L (corresponding to a molar concentration of 0.2 μM). […] This large number is quite reasonable since the LDL particle is very large and may not encompass specific binding sites, but rather the amphiphilic nature of the examined corroles renders them ideal for positioning in the phospholipid monolayer of the LDL, with the hydrophilic head groups sticking out toward the aqueous phase, as previously proposed for amphiphilic porphyrins (Camejo et al., 1998; Bonneau et al., 2004). In any case, no corrole is expected to be free in solution at the maximal corrole concentration used in the forthcoming experiments, namely, 5 μM per 100 mg of LDL protein/L (about 25 corrole molecules per LDL particle).

J-774 macrophages = experiment: Corrole-mediated cholesterol efflux from J-774 macrophages; type: cell-based, Murine; details: lipoprotein-free medium, 10, 25 or 50 μM, 4 hour, dose-dependent
Experimental: Murine J-774 cells (1×10^6/mL) were plated in 24-well plates for 24 hours, then washed and incubated for 1 hour in serum-free DMEM that contained ^3H-cholesterol (2 μCi/mL) and BSA (0.2%). […] After a 4-hour incubation at 37° C. to permit efflux of ^3H-cholesterol from the cells into the medium, 500 μL of the medium was collected. The cells were washed with PBS, 1 mL of 0.1 N NaOH was added to the cells and 500 μL was collected the next day. Medium and cellular ^3H-cholesterol were determined by liquid scintillation counting (LSC). […] Corrole-mediated cholesterol efflux was calculated after subtraction of the non-specific efflux obtained in cells incubated in the absence of corroles.
A still further indication for a favorable alteration of cellular cholesterol transport by metallocorroles was obtained by studying cholesterol efflux from J-774 macrophages in a lipoprotein-free medium. The iron complex (but not the manganese and gallium complexes) of corrole 1 increased the cholesterol efflux by up to 20% in a dose-dependent fashion.

[6] = tested on: Apolipoprotein E deficient mice (E^0 mice); experiment: Histopathology of aortic atherosclerosis lesions in E^0 mice; type: in vivo; details: oral, drinking water 0.04 mM (0.2 mg per mouse per day), 10 weeks; for Decrease in average lesion area relative to the control group: 1-Fe: mean of the four mice with lesions
Excerpt: At the end of the experiment, the mice were sacrificed and each heart and entire aorta were rapidly dissected out from each mouse and immersion-fixed in 3% glutaraldehyde in 0.1 mol/L sodium cacodylate buffer with 0.01% calcium chloride, pH 7.4, at room temperature. The first 4 mm of the aortic arch was stained with osmium tetroxide, which colors all the lipid components a dark brown-black color thus enabling delineation of the lesion with greater accuracy. The blocks were embedded in epon resin and thin transverse sections were cut to allow greater resolution of the lesion details. The area covered by the lesion was determined by image analysis (Coleman et al., 2006).
Two of the mice receiving that treatment did actually not develop atherosclerotic lesions at all and the average lesion area for the other four mice was 60% smaller than that obtained for the control mice. These observations are much better than those obtained by other methods, including E^0 mice that were treated by natural anti-oxidants (48% reduction when consuming red wine (Hayek et al., 1997; Fuhrman et al., 1995) and 44% for pomegranate juice (Aviram et al., 2000)) or those that were intraperitoneally-treated with different synthetic catalysts for decomposition of reactive oxygen species.

Row | SMILES | Yield of formaldehyde from DMSO [1] [%] | Yield of malonyldialdehyde from deoxyribose [2] [%] | Yield of nitrofluorescein from fluorescein [3] | Yield of L-nitrotyrosine from L-tyrosine [4] [%] | Inhibition of the oxidation of DMSO to malonaldehyde [5] | Decrease of absorbance after dialysis (LDL) [%] | Increase of cholesterol efflux from J-774 macrophages (J-774 macrophages) | Decrease in average lesion area relative to the control group [6] [%] | Increase of cholesterol efflux from J-774 macrophages (J-774 macrophages; listed as iron complex) | Mice (of six) that did not develop atherosclerotic lesions at all [6]
1 | O=S(=O)(O)c1cc2[n]3c1C(c1c(F)c(F)c(F)c(F)c1F)=C1C=CC4=[N+]1[Mn-]31[n]3c(cc(S(=O)(=O)O)c3-2)C(c2c(F)c(F)c(F)c(F)c2F)=c2ccc([n]21)=C4c1c(F)c(F)c(F)c(F)c1F (stereo not drawn) [1-Mn, 5,10,15-tris(pentafluorophenyl)-2,17-bis(sulfonic acid)-corrolato manganese(III)] | 0 | 0 | 0% | 0 | 65% | 20 | not | 17 | – | –
2 | O=S(=O)(O)c1cc2[n]3c1C(c1c(F)c(F)c(F)c(F)c1F)=C1C=CC4=[N+]1[Fe-]31[n]3c(cc(S(=O)(=O)O)c3-2)C(c2c(F)c(F)c(F)c(F)c2F)=c2ccc([n]21)=C4c1c(F)c(F)c(F)c(F)c1F (stereo not drawn) [1-Fe, 5,10,15-tris(pentafluorophenyl)-2,17-bis(sulfonic acid)-corrolato iron(III)] | 0 | 0 | 4%^(a) | 11 | completely | 10 | increases | 60 | up to 20% | Two and two
